Starred links: 1 amine or outer side, 2 acyl side, 3 side chain; linkers in the order of their positions; H or OH if unused. Positions of bridges follow the written chain, without caps; N, C: chain ends. Non-standard residues stand in square brackets, D forms with d. Residues, ends and D or L forms follow the SMILES beside them. *: point of attachment. X2 = CN(C(=Cc1ccc(O)cc1)C(=O)[*:2])[*:1]; X1 = CCCCCc1ccccc1CCC(=O)*
Experiments:
Substance-K receptor [1] = target: T1, Substance-K receptor (Homo sapiens, UniProt P21452)
T1 sequence (P21452 whole entry): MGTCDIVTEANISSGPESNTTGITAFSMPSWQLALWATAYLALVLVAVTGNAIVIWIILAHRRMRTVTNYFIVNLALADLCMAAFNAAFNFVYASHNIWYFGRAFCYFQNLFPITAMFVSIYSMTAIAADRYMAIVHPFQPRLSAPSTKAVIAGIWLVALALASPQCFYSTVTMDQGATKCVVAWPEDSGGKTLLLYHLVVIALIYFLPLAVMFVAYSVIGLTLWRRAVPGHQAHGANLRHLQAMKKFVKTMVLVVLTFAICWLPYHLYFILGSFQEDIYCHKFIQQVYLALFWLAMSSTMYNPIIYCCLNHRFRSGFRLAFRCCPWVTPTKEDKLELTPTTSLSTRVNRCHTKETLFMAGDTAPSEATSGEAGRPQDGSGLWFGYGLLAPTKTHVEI

Neuromedin-K receptor = target: T2, Neuromedin-K receptor (Cavia porcellus, UniProt P30098)
T2 sequence (P30098 whole entry): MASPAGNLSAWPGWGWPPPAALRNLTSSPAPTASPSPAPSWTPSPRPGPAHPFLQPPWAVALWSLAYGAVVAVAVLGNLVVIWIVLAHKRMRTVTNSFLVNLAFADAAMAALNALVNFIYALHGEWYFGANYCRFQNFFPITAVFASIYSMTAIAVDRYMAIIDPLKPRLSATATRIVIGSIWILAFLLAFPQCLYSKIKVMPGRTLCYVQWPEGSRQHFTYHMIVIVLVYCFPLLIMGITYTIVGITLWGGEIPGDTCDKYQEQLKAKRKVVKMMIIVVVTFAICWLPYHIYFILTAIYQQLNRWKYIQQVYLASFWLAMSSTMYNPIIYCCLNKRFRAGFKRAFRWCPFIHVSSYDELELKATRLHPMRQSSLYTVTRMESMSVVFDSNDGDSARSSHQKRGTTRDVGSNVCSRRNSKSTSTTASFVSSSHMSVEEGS

Substance-P receptor [2] = target: Substance-P receptor (Homo sapiens, UniProt P25103)
Substance-P receptor (Homo sapiens, UniProt P25103), sequence (P25103 whole entry): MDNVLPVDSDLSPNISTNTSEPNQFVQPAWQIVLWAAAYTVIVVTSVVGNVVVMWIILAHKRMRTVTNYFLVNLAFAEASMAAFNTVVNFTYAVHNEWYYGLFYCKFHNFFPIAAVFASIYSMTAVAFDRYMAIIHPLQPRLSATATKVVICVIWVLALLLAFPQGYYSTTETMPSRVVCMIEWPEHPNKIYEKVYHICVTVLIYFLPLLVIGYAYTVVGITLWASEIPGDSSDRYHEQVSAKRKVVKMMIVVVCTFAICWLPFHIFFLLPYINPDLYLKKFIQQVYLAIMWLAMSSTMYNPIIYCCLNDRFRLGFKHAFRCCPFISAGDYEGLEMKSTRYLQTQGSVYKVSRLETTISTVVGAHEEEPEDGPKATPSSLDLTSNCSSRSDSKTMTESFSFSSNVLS

Substance-P receptor [3] = target: Substance-P receptor (Rattus norvegicus, UniProt P14600)
Substance-P receptor (Rattus norvegicus, UniProt P14600), sequence (P14600 whole entry): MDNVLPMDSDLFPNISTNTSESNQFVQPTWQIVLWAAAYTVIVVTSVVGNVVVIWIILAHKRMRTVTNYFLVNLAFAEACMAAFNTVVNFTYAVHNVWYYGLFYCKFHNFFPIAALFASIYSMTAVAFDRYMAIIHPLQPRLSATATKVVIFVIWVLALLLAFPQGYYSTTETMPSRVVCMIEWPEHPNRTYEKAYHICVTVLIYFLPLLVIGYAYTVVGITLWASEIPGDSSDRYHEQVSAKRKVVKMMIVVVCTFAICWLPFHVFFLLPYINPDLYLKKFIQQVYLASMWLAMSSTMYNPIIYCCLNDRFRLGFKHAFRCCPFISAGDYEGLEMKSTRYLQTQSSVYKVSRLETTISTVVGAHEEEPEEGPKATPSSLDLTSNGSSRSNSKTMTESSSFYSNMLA

Substance-P receptor [4] = target: Substance-P receptor (Cavia porcellus, UniProt P30547)
Substance-P receptor (Cavia porcellus, UniProt P30547), sequence (P30547 whole entry): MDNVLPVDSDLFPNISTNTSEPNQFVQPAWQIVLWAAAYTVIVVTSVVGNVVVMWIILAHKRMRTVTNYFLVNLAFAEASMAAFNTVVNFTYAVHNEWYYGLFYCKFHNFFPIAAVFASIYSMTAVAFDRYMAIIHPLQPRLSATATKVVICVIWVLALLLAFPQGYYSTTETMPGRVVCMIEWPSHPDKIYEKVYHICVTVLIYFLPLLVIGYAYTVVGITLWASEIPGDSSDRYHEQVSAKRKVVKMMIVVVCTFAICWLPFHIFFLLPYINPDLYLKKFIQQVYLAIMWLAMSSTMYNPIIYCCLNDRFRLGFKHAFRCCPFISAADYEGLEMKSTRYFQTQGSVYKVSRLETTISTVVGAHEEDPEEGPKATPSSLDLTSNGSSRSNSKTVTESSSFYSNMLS

Substance-K receptor [5] = target: T3, Substance-K receptor (Mesocricetus auratus, UniProt P51144)
T3 sequence (P51144 whole entry): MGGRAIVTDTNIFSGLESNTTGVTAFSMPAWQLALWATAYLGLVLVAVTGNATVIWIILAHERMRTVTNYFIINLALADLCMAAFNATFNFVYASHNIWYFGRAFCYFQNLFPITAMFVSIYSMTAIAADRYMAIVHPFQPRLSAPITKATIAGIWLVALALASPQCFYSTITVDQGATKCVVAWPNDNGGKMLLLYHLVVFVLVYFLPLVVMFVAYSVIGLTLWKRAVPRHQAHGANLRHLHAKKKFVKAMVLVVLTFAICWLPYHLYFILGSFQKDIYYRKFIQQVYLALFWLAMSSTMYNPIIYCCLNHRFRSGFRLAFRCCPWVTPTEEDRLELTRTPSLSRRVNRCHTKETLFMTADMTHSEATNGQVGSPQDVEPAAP

Substance-K receptor [6] = target: T4, Substance-K receptor (Bos taurus, UniProt P05363)
T4 sequence (P05363 whole entry): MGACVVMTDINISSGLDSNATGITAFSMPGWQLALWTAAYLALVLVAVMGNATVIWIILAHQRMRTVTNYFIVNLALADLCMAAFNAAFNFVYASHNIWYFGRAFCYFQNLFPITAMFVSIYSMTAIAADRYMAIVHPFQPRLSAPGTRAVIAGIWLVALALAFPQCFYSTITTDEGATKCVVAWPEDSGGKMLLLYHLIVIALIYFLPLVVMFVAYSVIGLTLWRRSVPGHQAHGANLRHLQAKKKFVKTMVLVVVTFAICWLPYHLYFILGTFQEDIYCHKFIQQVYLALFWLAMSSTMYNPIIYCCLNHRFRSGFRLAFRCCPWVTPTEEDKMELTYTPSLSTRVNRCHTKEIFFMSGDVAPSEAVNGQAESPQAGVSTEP

COc1ccccc1CN[C@H]1C2CCN(CC2)[C@H]1C(c1ccccc1)c1ccccc1
Ki (Substance-K receptor [1]): > 10000 nM | Ki (Neuromedin-K receptor): > 10000 nM

COc1cc(C(=O)N2CC[C@@](CCN3CCC(C(N)=O)(c4ccccc4)CC3)(c3ccc(Cl)c(Cl)c3)C2)cc(OC)c1OC
Ki (Substance-P receptor [2]): 3.11 nM | Ki (Substance-P receptor [3]): 408 nM | Ki (Substance-K receptor [1]): 8.4 nM | Ki (Substance-P receptor [4]): 2.12 nM | Ki (Substance-K receptor [5]): 6.98 nM | Ki (Neuromedin-K receptor): 21 nM | Ki (Substance-K receptor [6]): 8.49 nM

COc1cc(C(=O)N2CC[C@](CCN3CCC(C(N)=O)(c4ccccc4)CC3)(c3ccc(Cl)c(Cl)c3)C2)cc(OC)c1OC
Ki (Substance-P receptor [2]): 7.07 nM | Ki (Substance-K receptor [1]): 21 nM | Ki (Substance-P receptor [4]): 5.88 nM | Ki (Neuromedin-K receptor): 54.3 nM

COc1cc(C(=O)N2CC[C@](CCN3CCC(C(N)=O)(c4ccccc4)CC3)(c3ccc(Cl)c(Cl)c3)C2)cc(OC)c1OC [1-{2-[(R)-3-(3,4-Dichloro-phenyl)-1-(3,4,5-trimethoxy-benzoyl)-pyrrolidin-3-yl]-ethyl}-4-phenyl-piperidine-4-carboxylic acid amide]
Ki (Substance-P receptor [2]): 160 nM | Ki (Substance-P receptor [3]): 2200 nM | Ki (Substance-K receptor [1]): 760 nM | Ki (Substance-P receptor [4]): 183 nM | Ki (Substance-K receptor [5]): 711 nM | Ki (Neuromedin-K receptor): 2310 nM | Ki (Substance-K receptor [6]): 207 nM

CCCCCc1ccccc1CCC(=O)NC1C(=O)N(C)C(=Cc2ccc(O)cc2)C(=O)NC(CC(C)C)C(=O)NC(Cc2ccccc2)C(=O)NC(C(C)O)C(=O)NC(CC(N)=O)C(=O)NC(CO)C(=O)OC1C (stereo not given) [CAS_6437864] (X1-T[X2]LFTNS; ester 1-C; configuration not given here)
Ki (Substance-P receptor [2]): 215 nM | Ki (Substance-P receptor [3]): 228 nM | Ki (Substance-K receptor [1]): 434 nM | Ki (Substance-P receptor [4]): 98.7 nM | Ki (Substance-K receptor [5]): 3590 nM | Ki (Neuromedin-K receptor): 3550 nM | Ki (Substance-K receptor [6]): 311 nM

CN(Cc1ccccc1)C(=O)[C@@H](Cc1ccc2ccccc2c1)NC(=O)C1C[C@@H](O)CN1C(=O)c1cn(C)c2ccccc12 (stereo not given in full) [FK 888]
Ki (Substance-P receptor [2]): 1.49 nM | Ki (Substance-P receptor [3]): 2070 nM | Ki (Substance-K receptor [1]): 1520 nM | Ki (Substance-P receptor [4]): 3.13 nM | Ki (Neuromedin-K receptor): 5620 nM

COc1cc(C(=O)N2CC[C@@](CCN3CCC(C(N)=O)(c4ccccc4)CC3)(c3ccc(Cl)c(Cl)c3)C2)cc(OC)c1OC [MDL 105,212A (R)-enantiomer]
Ki (Substance-P receptor [2]): 3.69 nM | Ki (Substance-K receptor [1]): 7.93 nM | Ki (Substance-P receptor [4]): 2.99 nM | Ki (Substance-K receptor [6]): 8.4 nM

CSCC[C@H](NC(=O)[C@H](CC(C)C)NC(=O)CNC(=O)[C@@H](NC(=O)[C@H](Cc1ccccc1)NC(=O)[C@H](CO)NC(=O)[C@H](CC(=O)O)NC(=O)[C@@H](NC(=O)[C@H](CCCCN)NC(=O)[C@@H](N)Cc1cnc[nH]1)[C@@H](C)O)C(C)C)C(N)=O [Neurokinin alpha]
Ki (Substance-K receptor [5]): 1.8 nM

COc1ccccc1CC(=N)N1C[C@@H]2C(=O)CCC(c3ccccc3)(c3ccccc3)[C@@H]2C1 [RP-67580]
Ki (Substance-P receptor [3]): 8.29 nM | Ki (Substance-P receptor [4]): 36 nM

CC(=O)NC1(c2ccccc2)CCN(CCC(CN(C)C(=O)c2ccccc2)c2ccc(Cl)c(Cl)c2)CC1 (stereo not given) [SR 48968]
Ki (Substance-P receptor [2]): 593 nM | Ki (Substance-K receptor [1]): 0.44 nM | Ki (Substance-P receptor [4]): 217 nM | Ki (Substance-K receptor [5]): 7.32 nM | Ki (Neuromedin-K receptor): 208 nM | Ki (Substance-K receptor [6]): 0.71 nM
